This is an account of results in the supplement of paper PMC5412046.

Test [1] has as its system SB.msgc-1. Put plainly: area under the dose-response curve of % viability (trapezoidal, 11 doses) (% viability x log10 concentration); higher = less cytotoxic. To be noted: SB.msgc-1 (sporadic gastric cancer). The procedure, abridged: (§1)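 The measure is viability normalised to DMSO, given as trapezoidal area under the curve or at the highest concentration. Patient-derived gastric cancer cells, hereditary or sporadic, were exposed for 48 h to compound at 11 threefold-diluted concentrations, each compound's top concentration being recorded. Luminescence was read on a ViewLux after 30 min with CellTiter-Glo at room temperature.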

Test [2] relates to SB.mhdgc-1. The test is described as above. To be noted: SB.mhdgc-1 (hereditary c.1380delA CDH1 gastric cancer). The procedure, abridged:
as §1

In test [3] the test system is SB.msgc-1. Put plainly: viability at highest tested concentration (MAXR) relative to DMSO; higher = less cytotoxic. To be noted: SB.msgc-1 (sporadic gastric cancer). The procedure, abridged: as §1
Test [4] deals with SB.mhdgc-1. The test is described as above. To be noted: SB.mhdgc-1 (hereditary c.1380delA CDH1 gastric cancer). The procedure, abridged:
as §1

Each structure is given as a SMILES string.

The viability is a read-out of living cells in per cent, often relative to untreated cells. As for `C[C@H]1CC2C3CCC/4=C/C(=O)/C=C\[C@]4(C)[C@@]3(F)[C@@H](O)C[C@]2(C)[C@@]1(O)C(=O)CO` (some centres not stated) [Betamethasone] (top concentration 46.0829 µM), the “area under the dose-response curve” value in test [1] stood at 571; in test [2], 512. Further, the results for the viability in test [3] and in test [4] were 65.2% and 60%, respectively.

Consider `COC1=C(CC=C(C)C)C2=C(\C=C/C(=O)O2)C=C1` [Osthol] (top concentration 46.0829 µM), for which the results for the “area under the dose-response curve” value in test [1] and in test [2] were 517 and 464, respectively. For the same compound, the viability in test [3] turned out to be 63.8%; in test [4], 41.5%.

For `Nc1nccc(-c2ccc3noc(-c4ccc(Cl)cc4)c3c2)n1` [Pim 1 inhibitor 2] (top concentration 46.0829 µM), the figures for the “area under the dose-response curve” value in test [1] and in test [2] were 468 and 490, respectively. Also, the viability in test [3] came out at 45.2%; in test [4] it was 62.6%.

Regarding `CO[C@H]1O[C@@H]2O[C@@]3(C)CC[C@H]4[C@H](C)CC[C@@H]([C@H]1C)[C@@]24OO3` [Artemether] (top concentration 46.0829 µM), the “area under the dose-response curve” value turned out to be 535 in test [1] and 544 in test [2]. Further, the viability in test [3] was found to be 90%; in test [4] it was 97.7%.

Take `N[C@@H](CC(=O)N1CCn2c(nnc2C(F)(F)F)C1)Cc1cc(F)c(F)cc1F` [Sitagliptin] (top concentration 46.0829 µM): the “area under the dose-response curve” value in test [1] is 527; in test [2], 587. Further, the viability in test [3] worked out at 99.3%; in test [4], 92.7%.

For the compound `Nc1nc(N)c2nc(CNc3ccc(C(=O)NC(CCC(=O)O)C(=O)O)cc3)cnc2n1` (configuration not stated) [Aminopterin] (top concentration 46.0829 µM), the results for the “area under the dose-response curve” value in test [1] and in test [2] were 285 and 409, respectively. Besides, the viability in test [3] is 36.4%; in test [4], 49.4%.

Consider `CCn1cc(-c2ccnc3[nH]c(-c4cccc(CN(C)C)c4)cc23)c(-c2ccc(NC(=O)N(C)C)cc2)n1` (top concentration 46.0829 µM), for which the results for the “area under the dose-response curve” value in test [1] and in test [2] were 450 and 367, respectively. Further, the viability in test [3] worked out at 15.2%; in test [4], 32.2%.

Regarding `C/C(=C\c1csc(C)n1)[C@@H]1C[C@@H]2O[C@@H]2CCC[C@H](C)[C@H](O)[C@@H](C)C(=O)C(C)(C)[C@@H](O)CC(=O)O1` [Epothilone A] (top concentration 46.0829 µM), the “area under the dose-response curve” value was determined as 256 in test [1] and 246 in test [2]. For the same compound, the viability in test [3] came to 42.9%; in test [4] it was 52.1%.

Take `COc1cc([C@@H]2c3cc4c(cc3[C@@H](O)C3COC(=O)C32)OCO4)cc(OC)c1O` (some centres not stated) [4-Demethylepipodophyllotoxin] (top concentration 46.0829 µM): the results for the “area under the dose-response curve” value in test [1] and in test [2] were 377 and 357, respectively. Also, the viability worked out at 50.3% in test [3] and 44.7% in test [4].

Turning to `CN(C)c1nc(N(C)C)nc(N(C)C)n1` [Altretamine] (top concentration 46.0829 µM), the results for the “area under the dose-response curve” value in test [1] and in test [2] were 398 and 508, respectively. Further, the viability in test [3] is 74.9%; in test [4] it was 83.6%.

Take `Cc1cc2c(C(C)C)c(O)c(O)c(C=O)c2c(O)c1-c1c(C)cc2c(C(C)C)c(O)c(O)c(C=O)c2c1O` [(-)-Gossypol] (top concentration 46.0829 µM): the entries for the “area under the dose-response curve” value in test [1] and in test [2] were 495 and 537, respectively. In addition, the viability in test [3] and in test [4] was 18.3% throughout.

Turning to `C=C1C[C@@]2(O)O[C@@]3(C[C@H]2C(C)C)[C@@H](C)CC[C@@H]13` [Curcumol] (top concentration 46.0829 µM), the “area under the dose-response curve” value in test [1] worked out at 556; in test [2], 587. The viability was 120% in test [3] and 104% in test [4].

With `CN1C2CCC1CC(OC(=O)C(CO)c1ccccc1)C2` (configuration not stated) [Atropine] (top concentration 46.0829 µM), the “area under the dose-response curve” value in test [1] is 543; in test [2], 472. The viability in test [3] was 97.2%; in test [4], 92%.

As to `C=CCc1ccc(O)c(-c2ccc(O)c(CC=C)c2)c1` [Honokiol] (top concentration 46.0829 µM), the “area under the dose-response curve” value in test [1] is 519; in test [2], 441. The viability in test [3] was determined as 79.4%; in test [4] it was 30.6%.

In the case of `Nc1cccc(-c2cc3c(Oc4cccc(O)c4)ncnc3[nH]2)c1` [TWS-119] (top concentration 46.0829 µM), the “area under the dose-response curve” value in test [1] worked out at 522; in test [2], 456. For the same compound, the viability in test [3] was found to be 32.8%; in test [4] it was 48%.

Consider `CC(=O)OCCN1C(=O)c2c(C)nc3ccc([S+](=O)([O-])N4CCOCC4)cc3c2C1=O` [Ivachtin] (top concentration 46.0829 µM), for which the figures for the “area under the dose-response curve” value in test [1] and in test [2] were 541 and 504, respectively. In addition, the values for the viability in test [3] and in test [4] were 120% and 102%, respectively.

As to `O=C(O)Cn1nnc(-c2cc(N3CCC(Oc4cc(F)ccc4Br)CC3)no2)n1` [MK-8245] (top concentration 46.0829 µM), the “area under the dose-response curve” value came to 478 in test [1] and 526 in test [2]. The viability in test [3] came out at 64.6%; in test [4], 133%.

Regarding `O=[S+]([O-])(/N=C/c1c(O)ccc2ccccc12)c1cccs1` (top concentration 46.0829 µM), the “area under the dose-response curve” value in test [1] was 453; in test [2], 405. Moreover, the viability worked out at 52.8% in test [3] and 105% in test [4].

Regarding `Clc1ccc(-c2nc3sccn3c2/C=N/OCc2ccc(Cl)c(Cl)c2)cc1` [CITCO] (top concentration 46.0829 µM), the “area under the dose-response curve” value in test [1] worked out at 490; in test [2] it was 495. In addition, the viability was 54.2% in test [3] and 46.2% in test [4].

For `C[C@]1(CO)CN(c2cc(C(=O)Nc3ccc4c(c3)-c3c(c(C(N)=O)nn3-c3ccc(F)cc3)CC4)c(Cl)cn2)C[C@@]1(C)CO` [PF-184] (top concentration 46.0829 µM), the “area under the dose-response curve” value worked out at 496 in test [1] and 450 in test [2]. For the same compound, the viability came to 54.5% in test [3] and 30.3% in test [4].

On to `OC(CN1CCC(Cc2ccc(F)cc2)CC1)c1ccc(Cl)cc1` (configuration not stated) [Eliprodil] (top concentration 46.0829 µM), for which the “area under the dose-response curve” value was 505 in test [1] and 431 in test [2]. The viability worked out at 81.8% in test [3] and 37.7% in test [4].

For the compound `CCN(CC)CCCC(C)Nc1nc(C)cc(Nc2ccc3nc(C)cc(N)c3c2)n1` (configuration not stated) (top concentration 46.0829 µM), the “area under the dose-response curve” value in test [1] came out at 503; in test [2] it was 502. The viability in test [3] worked out at 104%; in test [4], 93.6%.

Take `COC1CCC(CC1)N(C(=O)C2CCC(C)CC2)C3=C(SC(=C3)\C4=C\CCCC4)C(O)=O` (configuration not stated) [VCH-916] (top concentration 46.0829 µM): the figures for the “area under the dose-response curve” value in test [1] and in test [2] were 501 and 482, respectively. For the same compound, the viability worked out at 70.1% in test [3] and 99.5% in test [4].
